Experiment: Activity and safety: five-day once daily gavage treatment of rats, deaths and autopsy of the gastrointestinal tract
Format: in vivo
Settings: male rats, once daily by gavage for five days, diclofenac 20 mg/kg, compound of example 1 36 mg/kg; for % deaths: 10 animals/group; for % gastrointestinal ulcer: autopsy at fifth day 6 hr after treatment
Description: Thirty male rats (150-200 g) were divided into three groups of 10 animals/group and treated with vehicle, diclofenac (20 mg/kg) and the compound of example 1 (36 mg/kg) for five days once daily by gavage. The vehicle consisted in 1 mL of acidified aqueous solution. At the fifth day, survival animals were sacrificed 6 hr after the treatment, by an overdose of ether, and autopsied to detect any pathological changes, particularly in the gastrointestinal tract. Prostaglandin E2 was evaluated in the liver homogenate by standard enzyme immunoassay procedure as described by Warner T D et al. (J.P.E.T. 2004, 310, 642-7).

| Compound | % deaths [%] | % gastrointestinal ulcer [%] |
| --- | --- | --- |
| O=C(O)Cc1ccccc1Nc1c(Cl)cccc1Cl [Diclofenac] | 70 | 100 |
| O=C(Cc1ccccc1Nc1c(Cl)cccc1Cl)Oc1ccc(-c2cc(=S)ss2)cc1 [Compound example 1, 2-[(2,6-dichlorophenyl)amino]benzeneacetic acid 4-(3H-1,2,dithiole-3-thione-5-yl)-phenyl ester] | 0 | 0 |
